# Reference: the NIST ThermoML archive (doi:10.1021/je401057z)
# Numbers after ± are expanded uncertainties.
# Details: Liquid
structure (smiles),measurement,setting,value
"Cc1cccc(C)c1 [1,3-dimethylbenzene]",vapor or sublimation pressure,450.1 K,250 ± 10 kPa
"Cc1ccc(C)cc1 [1,4-dimethylbenzene]",vapor or sublimation pressure,"410.78 K, Ebulliometric method (Recirculating still)",100.04 ± 3.2 kPa
same,vapor or sublimation pressure,"412.63 K, Ebulliometric method (Recirculating still)",105 ± 3.4 kPa
same,vapor or sublimation pressure,"419.48 K, Ebulliometric method (Recirculating still)",124.93 ± 4 kPa
same,vapor or sublimation pressure,"433.57 K, Ebulliometric method (Recirculating still)",174.88 ± 5.6 kPa
same,vapor or sublimation pressure,"439.37 K, Ebulliometric method (Recirculating still)",199.86 ± 6.4 kPa
same,vapor or sublimation pressure,"444.66 K, Ebulliometric method (Recirculating still)",224.86 ± 7.2 kPa
same,vapor or sublimation pressure,"449.56 K, Ebulliometric method (Recirculating still)",250.04 ± 8 kPa
same,vapor or sublimation pressure,"449.6 K, Ebulliometric method (Recirculating still)",250 ± 8 kPa
"CC(C)CC(C)(C)C [2,2,4-trimethylpentane]",vapor or sublimation pressure,371.55 K,100.05 ± 3.5 kPa
same,vapor or sublimation pressure,373.4 K,104.94 ± 3.7 kPa
same,vapor or sublimation pressure,379.8 K,124.9 ± 4.3 kPa
same,vapor or sublimation pressure,386.94 K,149.96 ± 5.1 kPa
same,vapor or sublimation pressure,393.14 K,174.7 ± 6 kPa
same,vapor or sublimation pressure,398.64 K,199.94 ± 6.8 kPa
same,vapor or sublimation pressure,403.68 K,224.91 ± 7.6 kPa
same,vapor or sublimation pressure,408.28 K,249.95 ± 8.4 kPa
same,vapor or sublimation pressure,408.3 K,250 ± 8 kPa
"Cc1ccccc1C [1,2-dimethylbenzene]",vapor or sublimation pressure,456.1 K,250 ± 10 kPa
CCc1ccccc1 [ethylbenzene],vapor or sublimation pressure,447.2 K,250 ± 10 kPa
